Results reported in patent US20030040507A1, “Pharmaceutical composition comprising ifosfamide and carnitine” (priority 1997, published 2003).

Legend:
[1] = test system: proximal tubule of the kidneys; test: comparative investigation of nephrotoxicity in healthy and tumour-bearing rats; assay type: in vivo
Description: In accordance with the set object, comparative investigations were investigated [sic] out with respect to effect on the nephrotoxicity in healthy and tumour-bearing rats after administration of ifosfamide on its own and in combination with L-carnitine. The doses for L-carnitine were selected such that the compound itself causes no side effects at all in the animals.

rats = settings: L-carnitine together with ifosfamide; cited from earlier work
tumour-bearing rats = test: antitumour action of ifosfamide in combination with L-carnitine; assay type: in vivo; settings: FIGS. 1 and 2

| SMILES | effect on ifosfamide-induced damage to the proximal tubule of the kidney ([1]; simultaneous administration of L-carnitine 2×100 mg/kg i.v. with ifosfamide, rats) | clinical result (rats) | damage to the proximal tubule of the kidneys ([1]; ifosfamide on its own, healthy and tumour-bearing rats (both animal groups)) | antitumour action of ifosfamide (tumour-bearing rats) |
| --- | --- | --- | --- | --- |
| C[N+](C)(C)C[C@H](O)CC(=O)[O-] [L-carnitine] | antagonized significantly | decreased lethargy | – | – |
| O=P1(NCCCl)OCCCN1CCCl (stereo not shown) [ifosfamide] | – | – | clear dose-dependent damage | not affected |
